# Experimental data as given in paper PMC10349806 (Nature Communications, 2023).
# Several values for one entry are separate records, joined by “and”; a condition that tells them apart may be missing. Identical values can stand only once.
# Biological target: T1, PfCRT variant Y276A (Plasmodium falciparum, UniProt Q9N623, A220S/I356T/K76T/M74I/N326S/N75E/Q271E/R371I/Y276A)
# T1 sequence (Q9N623 1-424 M74I/N75E/K76T/A220S/Q271E/Y276A/N326S/I356T/R371I): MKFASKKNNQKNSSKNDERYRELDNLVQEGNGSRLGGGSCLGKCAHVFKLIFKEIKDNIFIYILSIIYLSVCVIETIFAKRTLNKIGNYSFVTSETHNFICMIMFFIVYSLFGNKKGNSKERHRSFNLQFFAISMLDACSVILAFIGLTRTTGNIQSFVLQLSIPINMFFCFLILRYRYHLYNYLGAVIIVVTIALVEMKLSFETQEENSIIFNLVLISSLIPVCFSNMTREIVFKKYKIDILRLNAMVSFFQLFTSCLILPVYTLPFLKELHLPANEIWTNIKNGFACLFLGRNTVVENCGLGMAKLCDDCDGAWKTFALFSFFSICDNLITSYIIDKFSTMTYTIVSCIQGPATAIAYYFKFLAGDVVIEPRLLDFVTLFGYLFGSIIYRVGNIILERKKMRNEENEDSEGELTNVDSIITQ
# Test: CQ uptake assay, oocytes expressing Y276A
# Type: cell-based
# Protocol: Site-directed mutagenesis of PfCRT^Dd2 was performed as described using the megaprimer method with overlap extension[21],[54]. The primer pairs used are listed in Supplementary Table 6. Please note that a codon-optimized and oocyte-adapted version of PfCRT^Dd2 was used[22] (Supplementary Fig. 16). The resulting DNA fragment was cloned into the SP64T expression vector and verified by sequencing.
# Oocytes were obtained as described previously. Briefly, adult (>2 years old) female X. laevis frogs (NASCO) were anesthetized in a cooled solution of ethyl 3-amino benzoate methanesulfonate (0.1%, w/v), followed by a surgical removal of parts of the ovary. The ovary lobes were carefully dissected and small pieces of oocytes were incubated in Ca^2+-free ND96 buffer (96 mM NaCl, 2 mM KCl, 1 mM MgCl2 buffered with 5 mM HEPES/NaOH, pH 7.5) supplemented with collagenase D (0.1%, w/v; Roche), BSA (0.5%, w/v), and 9 mm Na2HPO4 at 18 °C for 14-16 h while gentle shaking. After incubation, the oocytes were carefully washed several times with ND96 buffer (96 mM NaCl, 2 mM KCl, 1.8 mM CaCl2, 1 mM MgCl2 buffered with 5 mM HEPES/NaOH, pH 7.5) supplemented with 100 mg l^−1 gentamycin). Defolliculated and healthy-looking stage V-VI oocytes were manually selected for RNA microinjection. The RNA was generated as following: The codon-optimized sequences of PfCRT variants were cloned into the pSP64T expression vector. After vector linearization using the restriction endonucleases BamHI or SalI (New England Biolabs), transcription was performed using the in vitro SP6 mMessage mMachine Kit (Ambion)[34]. The obtained RNA was kept at −80 °C and diluted with nuclease-free water to a concentration of 0.6 μg μl^−1. Precision-bore glass capillary tubes (3.5-inch glass capillaries; Drummond Scientific Co.) were pulled on a vertical puller (P-87 Flaming/Brown micropipette puller, Sutter Instrument Co.), graduated, and placed on a microinjector (Nanoject II Auto-Nanoliter Injector, Drummond Scientific Co.). 50 nl of nuclease-free water alone (control oocytes) or 50 nl of 0.6 μg μl^−1 RNA were injected under stereomicroscopic control. Injected oocytes were incubated for 46–72 h at 18 °C with twice-daily buffer changes before usage in experiments.
# Drug uptake assays were performed as described previously[21],[22],[24],[34]. […] The direction of radio-labeled drug transport is here from the mostly acidic extracellular solution (pH 4.5 or 6.0, as indicated) into the oocyte cytosol (pH ∼ 7.2), which corresponds to the efflux of drug from the acidic digestive vacuole (pH 5.2) into the parasite cytoplasm (pH 7.2). The topology of PfCRT in the oolemma is such that both the N- and C-terminus face the extracellular milieu[3],[22]. In the parasite, the N- and C-terminus face the lumen of the digestive vacuole. […] For determination of the amount of drug uptake for each oocyte, the reaction medium was removed and the oocytes were washed three times with 2 ml of ice-cold ND96 buffer. Each oocyte was individually transferred to a scintillation vial containing 5% sodium dodecyl sulfate (200 μl) for lysis. […] Oocytes that were injected with water instead of RNA were analyzed in parallel, representing the uptake of a drug by diffusion and/or endogenous permeation pathways. The resulting value represents the “background“ level of drug accumulation in oocytes (in-depth discussion in[22]). The specific PfCRT-mediated uptake was determined by subtracting the corresponding background value measured in water-injected oocytes from that of PfCRT-expressing oocytes. In all cases, at least three separate experiments were performed on oocytes from different frogs (biological replicate), and for each condition in an experiment, measurements were made from 10 oocytes per treatment. For pH 5.5, 6.0, and 6.5, ND96 was buffered with 5 mM MES/Tris base.
# [1] = Y276A, 50 µM CQ, 1 h, mean ± SEM
smiles,measurement,setting,value
"CCN(CC)CCCC(C)Nc1ccnc2cc(Cl)ccc12 (stereo not drawn) [CQ, chloroquine]",Activity at pH 4.5,[1],1.50 ± 0.12 pmol h-1 oocyte-1
same,Activity at pH 6.0,[1],3.51 ± 0.35 pmol h-1 oocyte-1
same,R-value,"Y276A, CQ transport at pH 4.5 / pH 6.0",0.45 ± 0.09
same,Y276A transport activity pH 4.5,"pH 4.5, single replicates, Fig 1d left",1.28 pmol oocyte-1 h-1 and 1.46 pmol oocyte-1 h-1
same,Y276A R-value,"pH 4.5 vs pH 6.0, Fig 1d left",0.34 and 0.66 and 0.36
same,Y276A transport activity pH 6.0,"pH 6.0, single replicates, Fig 1d left",3.78 pmol oocyte-1 h-1 and 2.68 pmol oocyte-1 h-1 and 4.08 pmol oocyte-1 h-1
